What was measured:
[1] = target: Beta-1 adrenergic receptor (Homo sapiens, UniProt P08588)
Description: Agonist activity at human recombinant beta-1 adrenergic receptor expressed in CHO cells assessed as cAMP accumulation by enzyme immunoassay

[2] = Cmax in Beagle dog at 0.10 mg/kg, po by cassette assay; assay type: ADME, organism-based, Canis lupus familiaris; set-up: dose 0.1 mg/kg, route oral; settings: in vivo, 0.1 mg/kg
[3] = AUC (0 to 24 hrs) in Beagle dog at 0.10 mg/kg, po by cassette assay; assay type: ADME, organism-based, Canis lupus familiaris; set-up: time < 24 hr, dose 0.1 mg/kg, route oral; settings: plasma, 0.1 mg/kg
[4] = Total clearance in Beagle dog at 0.10 mg/kg, iv by cassette assay; assay type: ADME, organism-based, Canis lupus familiaris; set-up: dose 0.1 mg/kg, route intravenous; settings: in vivo, 0.1 mg/kg
[5] = target: Beta-3 adrenergic receptor (Homo sapiens, UniProt P13945); assay: Agonist activity at human recombinant beta3 adrenergic receptor expressed in CHO cells assessed as cAMP accumulation by enzyme immunoassay; assay type: functional, cell-based
[6] = Terminal half life in Beagle dog plasma at 0.10 mg/kg, iv by cassette assay; assay type: ADME, organism-based, Canis lupus familiaris; set-up: dose 0.1 mg/kg, route intravenous; settings: 0.1 mg/kg, read-out: beta t1/2 (converted)
[7] = Bioavailability in Beagle dog at 0.10 mg/kg, po and iv by cassette assay; assay type: ADME, organism-based, Canis lupus familiaris; settings: in vivo, 0.1 mg/kg
[8] = target: Beta-3 adrenergic receptor (Canis lupus familiaris, UniProt O02662); assay: Agonist activity at dog recombinant beta3 adrenergic receptor expressed in CHO cells assessed as cAMP accumulation by enzyme immunoassay; assay type: functional, cell-based; settings: read-out: EC50
Canis familiaris [9] = assay: Inhibition of carbachol-induced increase in intravesical pressure in Beagle dog OAB model at 10 ug/kg, iv for 30 mins measured for 180 mins; assay type: functional; settings: Canis lupus familiaris
[10] = target: Beta-2 adrenergic receptor (Homo sapiens, UniProt P07550)
Description: Agonist activity at human recombinant beta2 adrenergic receptor expressed in CHO cells assessed as cAMP accumulation by enzyme immunoassay

Canis familiaris [11] = assay: Inhibition of carbachol-induced increase in intravesical pressure in intraduodenally dosed Beagle dog OAB model for 30 mins measured for 180 mins; assay type: functional, organism-based; settings: Canis lupus familiaris
[12] = Inhibition of KCl-induced tonic contraction in Beagle dog detrusor muscle strips preincubated for 15 mins before KCl challenge; assay type: functional; settings: Canis lupus familiaris, read-out: EC50

Beta-3 adrenergic receptor (Homo sapiens, UniProt P13945), sequence (P13945 whole entry): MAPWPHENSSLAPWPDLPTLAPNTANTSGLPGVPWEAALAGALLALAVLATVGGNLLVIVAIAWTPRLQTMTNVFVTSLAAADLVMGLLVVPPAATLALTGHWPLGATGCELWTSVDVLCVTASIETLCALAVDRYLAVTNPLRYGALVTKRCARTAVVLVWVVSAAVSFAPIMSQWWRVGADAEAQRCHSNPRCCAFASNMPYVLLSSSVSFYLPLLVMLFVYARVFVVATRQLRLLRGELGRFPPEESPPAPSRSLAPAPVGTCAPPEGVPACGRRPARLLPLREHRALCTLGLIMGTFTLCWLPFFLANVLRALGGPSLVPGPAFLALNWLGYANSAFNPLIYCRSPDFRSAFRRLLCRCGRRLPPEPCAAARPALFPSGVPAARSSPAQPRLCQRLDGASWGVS
Beta-1 adrenergic receptor, sequence (P08588 whole entry): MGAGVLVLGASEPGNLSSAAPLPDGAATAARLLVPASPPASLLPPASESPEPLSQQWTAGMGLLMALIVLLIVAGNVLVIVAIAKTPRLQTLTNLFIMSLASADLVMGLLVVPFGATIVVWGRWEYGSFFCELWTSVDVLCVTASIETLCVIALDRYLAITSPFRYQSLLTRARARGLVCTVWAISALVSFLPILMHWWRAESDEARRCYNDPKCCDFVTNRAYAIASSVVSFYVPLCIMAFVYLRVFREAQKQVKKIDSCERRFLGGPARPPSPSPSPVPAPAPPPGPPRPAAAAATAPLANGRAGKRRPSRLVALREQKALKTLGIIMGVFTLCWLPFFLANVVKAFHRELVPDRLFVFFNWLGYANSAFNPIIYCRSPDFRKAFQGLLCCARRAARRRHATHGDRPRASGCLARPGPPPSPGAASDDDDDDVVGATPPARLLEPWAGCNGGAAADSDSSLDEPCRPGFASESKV
Beta-3 adrenergic receptor (Canis lupus familiaris, UniProt O02662), sequence (O02662 whole entry): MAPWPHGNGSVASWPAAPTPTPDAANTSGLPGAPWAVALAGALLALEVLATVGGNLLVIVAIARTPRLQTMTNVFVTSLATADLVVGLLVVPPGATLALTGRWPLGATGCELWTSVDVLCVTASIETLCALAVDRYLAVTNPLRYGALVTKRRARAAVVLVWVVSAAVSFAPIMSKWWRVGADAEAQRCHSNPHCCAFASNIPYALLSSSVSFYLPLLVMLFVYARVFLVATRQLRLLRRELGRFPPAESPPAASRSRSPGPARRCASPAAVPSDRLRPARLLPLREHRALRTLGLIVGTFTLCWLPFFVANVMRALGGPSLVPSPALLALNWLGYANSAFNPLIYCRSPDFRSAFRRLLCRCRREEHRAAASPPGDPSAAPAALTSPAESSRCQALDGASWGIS
Beta-2 adrenergic receptor, sequence (P07550 whole entry): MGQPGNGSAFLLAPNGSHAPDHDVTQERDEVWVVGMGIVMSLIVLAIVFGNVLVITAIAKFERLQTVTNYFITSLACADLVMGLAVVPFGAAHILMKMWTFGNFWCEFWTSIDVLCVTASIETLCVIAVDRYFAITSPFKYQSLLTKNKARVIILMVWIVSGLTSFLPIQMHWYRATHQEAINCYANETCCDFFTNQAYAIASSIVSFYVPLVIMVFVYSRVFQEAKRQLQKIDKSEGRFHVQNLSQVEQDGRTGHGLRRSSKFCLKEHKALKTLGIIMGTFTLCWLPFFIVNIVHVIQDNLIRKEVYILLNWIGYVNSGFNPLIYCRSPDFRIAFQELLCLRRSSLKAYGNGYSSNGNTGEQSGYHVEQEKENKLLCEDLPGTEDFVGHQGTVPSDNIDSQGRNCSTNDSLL

SMILES	EC50 [1]	Cmax [2]	AUC(0-t) at 24 h [3]	clearance [4]	EC50 ([5]; read-out: EC50)	half-life [6]	bioavailability [7]	other results
CC(C)Sc1cc(-c2ccc(CCNC[C@H](O)c3ccccc3)cc2)ccc1C(=O)O								EC50 [8]: 1.2 nM; EC50 (Canis familiaris [11]): 11.2 nM; ED50 (Canis familiaris [11]): 0.047 mg/kg; EC50 [12]: 11 nM
CC(C)Oc1cc(-c2ccc(CCNC[C@H](O)c3ccc(N)cc3)cc2)ccc1C(=O)NS(C)(=O)=O	> 1000 nM				5.5 nM			EC50 ([5]; read-out: pEC50 (converted)): 0.2 nM
CS(=O)(=O)NC(=O)c1ccc(-c2ccc(CCNC[C@H](O)c3ccccc3)cc2)cc1OC1CCCC1	750 nM				0.62 nM			
CS(=O)(=O)NC(=O)c1ccc(-c2ccc(CCNC[C@H](O)c3ccc(N)cc3)cc2)cc1OC1CCCCC1.Cl.Cl	> 1000 nM	17.5 ng/mL	212 ng·h/mL	5 mL/min/kg	0.5 nM	5.7 h	68%	EC50 ([5]; read-out: pEC50 (converted)): 0.0631 nM
CC(C)Oc1cc(-c2ccc(CCNC[C@H](O)c3ccccc3)cc2)ccc1C(=O)O								EC50 [12]: 6.8 nM; inhibition in vivo at 0.01 mg/kg (Canis familiaris [9]): > 70%
CS(=O)(=O)NC(=O)c1ccc(-c2ccc(CCNC[C@H](O)c3ccccc3)cc2)cc1OC1CCCCCC1	220 nM				0.38 nM			

Further lines, with some results ahead:

EC50 [1]	Cmax [2]	AUC(0-t) at 24 h [3]	clearance [4]	EC50 ([5]; read-out: EC50)	half-life [6]	bioavailability [7]	SMILES	other results
490 nM	2.6 ng/mL	12 ng·h/mL	35.9 mL/min/kg	0.32 nM	0.6 h	21%	CC(C)Cc1cc(-c2ccc(CCNC[C@H](O)c3cccnc3)cc2)ccc1C(=O)NS(C)(=O)=O.Cl.Cl	
> 1000 nM	70.3 ng/mL	756 ng·h/mL	2.2 mL/min/kg	0.6 nM	4.4 h	98%	CS(=O)(=O)NC(=O)c1ccc(-c2ccc(CCNC[C@H](O)c3ccccc3)cc2)cc1Oc1ccccc1.Cl	EC50 [8]: 2.9 nM; inhibition in vivo at 0.01 mg/kg (Canis familiaris [9]): 35%
> 1000 nM	10.3 ng/mL	28.4 ng·h/mL	12.4 mL/min/kg	0.062 nM	1.3 h	21%	CS(=O)(=O)NC(=O)c1ccc(-c2ccc(CCNC[C@H](O)c3cccnc3)cc2)cc1NC1CCCCC1.Cl.Cl.Cl	EC50 [10]: > 10000 nM
160 nM				2.8 nM			CCCCCOc1cc(-c2ccc(CCNC[C@H](O)c3ccccc3)cc2)ccc1C(=O)NS(C)(=O)=O	
730 nM				18 nM			COc1cc(-c2ccc(CCNC[C@H](O)c3ccccc3)cc2)ccc1C(=O)NS(C)(=O)=O	
130 nM				1 nM			CC(C)Oc1cc(-c2ccc(CCNC[C@H](O)c3cccnc3)cc2)ccc1C(=O)NS(C)(=O)=O	
> 1000 nM	8.1 ng/mL	91.9 ng·h/mL		1.4 nM			CCCSc1cc(-c2ccc(CCNC[C@H](O)c3ccccc3)cc2)ccc1C(=O)NS(C)(=O)=O.Cl	
320 nM	1.9 ng/mL	10.4 ng·h/mL	16.4 mL/min/kg	0.2 nM	2.7 h	12%	CC(C)Nc1cc(-c2ccc(CCNC[C@H](O)c3cccnc3)cc2)ccc1C(=O)NS(C)(=O)=O.Cl.Cl.Cl	

— ChEMBL document CHEMBL1138480, “Discovery of highly potent and selective biphenylacylsulfonamide-based beta3-adrenergic receptor agonists and evaluation of physical properties as potential overactive bladder therapies: part 5” (J Med Chem, 2009)
